Data: PMC7617459, “Comparative Evaluation and Profiling of Chemical Tools for the Nuclear Hormone Receptor Family 2” (ACS pharmacology & translational science, 2025)

Assays:
RXRα [1] = molecular target: T1, RXRα (Homo sapiens, UniProt P19793); assay: Gal4-hybrid reporter gene assay RXRα; settings: 1 µM
T1 sequence (P19793 227-458 limits assumed): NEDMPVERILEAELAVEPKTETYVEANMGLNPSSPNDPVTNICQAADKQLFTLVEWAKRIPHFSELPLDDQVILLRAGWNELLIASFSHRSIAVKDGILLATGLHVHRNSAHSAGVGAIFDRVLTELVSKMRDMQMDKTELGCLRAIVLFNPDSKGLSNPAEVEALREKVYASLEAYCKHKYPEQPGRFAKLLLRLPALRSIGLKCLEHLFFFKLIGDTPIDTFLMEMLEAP

TR2 = molecular target: T2, TR2 (Homo sapiens, UniProt P13056); assay: Gal4-hybrid reporter gene assay TR2; format: cell-based; settings: 1 µM
T2 construct: encoding the hinge region and the LBD of the canonical isoform of the respective human nuclear receptors; expressed in transfected cells; host or cells: HEK293T
T2 sequence (P13056 348-590 limits assumed): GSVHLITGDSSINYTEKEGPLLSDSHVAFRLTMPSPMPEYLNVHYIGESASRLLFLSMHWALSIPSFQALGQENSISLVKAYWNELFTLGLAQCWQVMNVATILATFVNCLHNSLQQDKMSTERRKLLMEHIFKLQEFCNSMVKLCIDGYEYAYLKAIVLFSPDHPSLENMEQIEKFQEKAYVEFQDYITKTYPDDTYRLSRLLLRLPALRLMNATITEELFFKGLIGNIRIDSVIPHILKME
Method: (§1) Gal4-hybrid reporter gene assays were performed as described previously using the plasmids pFA-CMV-hTHRα-LBD,[170] pFA-CMV-hRARα-LBD,[171] pFA-CMV-hPPARα-LBD,[172] pFA-CMV-hPPARγ-LBD,[172] pFA-CMV-hPPARδ-LBD,[172] pFA-CMV-revERBα-LBD,[158] pFA-CMV-hRORα-LBD,[173] pFA-CMV-hLXRα-LBD,[118] pFA-CMV-hFXR-LBD,[174] pFA-CMV-hVDR-LBD,[171] pFA-CMV-hCAR-LBD,[171] pFA-CMV-hHNF4α-LBD,[110] pFA-CMV-hRXRα-LBD,[175] pFA-CMV-hTR2-LBD,[102] pFA-CMV-hTR4-LBD,[102] pFA-CMV-hTLX-LBD,[102] pFA-CMV-hNR2E3-LBD,[102] pFA-CMV-hNur77-LBD,[176] pFA-CMV-hSF1-LBD[158] encoding the hinge region and the LBD of the canonical isoform of the respective human nuclear receptors. pFR-Luc (Stratagene, La Jolla, CA, USA) was used as a reporter plasmid, and pRL-SV40 (Promega, Madison, WI, USA) was used for normalization of transfection efficiency and cell growth. […] After 16 h incubation, luciferase activity was measured using the Dual-Glo Luciferase Assay System (Promega) according to the manufacturer’s protocol on a Tecan Spark luminometer (Tecan Deutschland GmbH, Crailsheim, Germany). Firefly luminescence was divided by Renilla luminescence and multiplied by 1000 resulting in relative light units (RLUs) to normalize for transfection efficiency and cell growth. […] Antagonistic effects were evaluated by coincubation of the test compound with the respective reference ligand.

PNR (NR2E3) = molecular target: T3, PNR (NR2E3) (Homo sapiens, UniProt Q9Y5X4); assay: Gal4-hybrid reporter gene assay PNR; format: cell-based; settings: selected test concentration (Figure 3)
T3 construct: encoding the hinge region and the LBD of the canonical isoform of the respective human nuclear receptors; expressed in transfected cells; host or cells: HEK293T
T3 sequence (Q9Y5X4 169-410 limits assumed): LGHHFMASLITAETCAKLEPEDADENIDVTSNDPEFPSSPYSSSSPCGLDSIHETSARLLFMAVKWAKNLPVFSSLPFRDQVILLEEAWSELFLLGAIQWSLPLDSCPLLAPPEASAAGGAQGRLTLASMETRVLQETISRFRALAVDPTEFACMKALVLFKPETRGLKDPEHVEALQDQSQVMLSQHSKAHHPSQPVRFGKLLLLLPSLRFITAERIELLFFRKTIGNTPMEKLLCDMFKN
Method: Gal4-hybrid reporter gene assays were performed as described previously using the plasmids pFA-CMV-hTHRα-LBD,[170] pFA-CMV-hRARα-LBD,[171] pFA-CMV-hPPARα-LBD,[172] pFA-CMV-hPPARγ-LBD,[172] pFA-CMV-hPPARδ-LBD,[172] pFA-CMV-revERBα-LBD,[158] pFA-CMV-hRORα-LBD,[173] pFA-CMV-hLXRα-LBD,[118] pFA-CMV-hFXR-LBD,[174] pFA-CMV-hVDR-LBD,[171] pFA-CMV-hCAR-LBD,[171] pFA-CMV-hHNF4α-LBD,[110] pFA-CMV-hRXRα-LBD,[175] pFA-CMV-hTR2-LBD,[102] pFA-CMV-hTR4-LBD,[102] pFA-CMV-hTLX-LBD,[102] pFA-CMV-hNR2E3-LBD,[102] pFA-CMV-hNur77-LBD,[176] pFA-CMV-hSF1-LBD[158] encoding the hinge region and the LBD of the canonical isoform of the respective human nuclear receptors. pFR-Luc (Stratagene, La Jolla, CA, USA) was used as a reporter plasmid, and pRL-SV40 (Promega, Madison, WI, USA) was used for normalization of transfection efficiency and cell growth. HEK293T cells (German Collection of Microorganisms and Cell Culture GmbH, DSMZ) were cultured in Dulbecco’s modified Eagle’s medium (DMEM), high glucose supplemented with 10% fetal calf serum (FCS), sodium pyruvate (1 mM), penicillin (100 U/mL), and streptomycin (100 μg/mL) at 37 °C and 5% CO2 and seeded in 96-well plates (3 × 10^4 cells/well). The medium was changed to Opti-MEM without supplements, and the cells were transiently transfected with one pFA-CMV-hNR-LBD clone, pFR-Luc, and pRL-SV40 using Lipofectamine LTX reagent (Invitrogen, Thermo Fisher Scientific) according to the manufacturer’s instructions. Five hours after transfection, cells were incubated with the test compounds in Opti-MEM supplemented with penicillin (100 U/mL), streptomycin (100 μg/mL), and 0.1% DMSO. Each sample was set up in duplicates and tested in at least three independent experiments. After 16 h incubation, luciferase activity was measured using the Dual-Glo Luciferase Assay System (Promega) according to the manufacturer’s protocol on a Tecan Spark luminometer (Tecan Deutschland GmbH, Crailsheim, Germany). Firefly luminescence was divided by Renilla luminescence and multiplied by 1000 resulting in relative light units (RLUs) to normalize for transfection efficiency and cell growth. Fold activation was obtained by dividing the mean RLU of the test compound by the mean^a RLU of the untreated control, and relative activation was calculated by dividing the fold activation of a test sample by the fold activation of the respective reference agonist. Antagonistic effects were evaluated by coincubation of the test compound with the respective reference ligand.

RXRα [2] = settings: reporter gene assay; read-out: RXRα cellular activity/potency; cited from earlier work
RXRγ = settings: reporter gene assay; read-out: RXRγ cellular activity/potency; cited from earlier work
TR4 = molecular target: T4, TR4 (Homo sapiens, UniProt P49116); assay: Gal4-hybrid reporter gene assay TR4; format: cell-based; settings: 1 µM
T4 construct: encoding the hinge region and the LBD of the canonical isoform of the respective human nuclear receptors; expressed in transfected cells; host or cells: HEK293T
T4 sequence (P49116 341-583 limits assumed): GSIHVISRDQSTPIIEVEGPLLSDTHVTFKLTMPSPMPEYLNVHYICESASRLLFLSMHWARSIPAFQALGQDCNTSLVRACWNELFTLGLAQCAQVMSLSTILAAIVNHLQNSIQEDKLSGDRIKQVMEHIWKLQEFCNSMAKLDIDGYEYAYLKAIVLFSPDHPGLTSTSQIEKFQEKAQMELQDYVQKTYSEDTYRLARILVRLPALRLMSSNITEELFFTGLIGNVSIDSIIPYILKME
Method: as §1

RXRβ = settings: reporter gene assay; read-out: RXRβ cellular activity/potency; cited from earlier work
full-length TLX = settings: reporter gene assay; read-out: IC50 (second value of cell; full-length TLX); cited from earlier work
RARα = RARα (Homo sapiens, UniProt P10276); settings: selected test concentration (Figure 3)
Chain of RARα (P10276 183-417 limits assumed): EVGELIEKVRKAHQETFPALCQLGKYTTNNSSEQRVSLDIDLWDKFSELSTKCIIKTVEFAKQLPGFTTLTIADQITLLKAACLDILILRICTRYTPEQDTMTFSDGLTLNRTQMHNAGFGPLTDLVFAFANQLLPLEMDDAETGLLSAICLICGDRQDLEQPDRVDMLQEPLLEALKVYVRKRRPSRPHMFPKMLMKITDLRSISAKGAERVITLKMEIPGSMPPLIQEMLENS
Method: HEK293T cells (German Collection of Microorganisms and Cell Culture GmbH, DSMZ) were cultured in Dulbecco’s modified Eagle’s medium (DMEM), high glucose supplemented with 10% fetal calf serum (FCS), sodium pyruvate (1 mM), penicillin (100 U/mL), and streptomycin (100 μg/mL) at 37 °C and 5% CO2 and seeded in 96-well plates (3 × 10^4 cells/well). The medium was changed to Opti-MEM without supplements, and the cells were transiently transfected with one pFA-CMV-hNR-LBD clone, pFR-Luc, and pRL-SV40 using Lipofectamine LTX reagent (Invitrogen, Thermo Fisher Scientific) according to the manufacturer’s instructions. […] After 16 h incubation, luciferase activity was measured using the Dual-Glo Luciferase Assay System (Promega) according to the manufacturer’s protocol on a Tecan Spark luminometer (Tecan Deutschland GmbH, Crailsheim, Germany). Firefly luminescence was divided by Renilla luminescence and multiplied by 1000 resulting in relative light units (RLUs) to normalize for transfection efficiency and cell growth. Fold activation was obtained by dividing the mean RLU of the test compound by the mean^a RLU of the untreated control, and relative activation was calculated by dividing the fold activation of a test sample by the fold activation of the respective reference agonist. Antagonistic effects were evaluated by coincubation of the test compound with the respective reference ligand.

HEK293T cells = settings: cited from earlier work
TLX LBD = settings: FP assay, cited from earlier work
RARs and RXRs = test system: RARs and RXRs; set-up: method as in PMID 32763139; settings: cited from earlier work
TLX [3] = molecular target: T5, TLX (Homo sapiens, UniProt Q9Y466); assay: Gal4-hybrid reporter gene assay TLX; format: cell-based; settings: selected test concentration (Figure 3)
T5 construct: encoding the hinge region and the LBD of the canonical isoform of the respective human nuclear receptors; expressed in transfected cells; host or cells: HEK293T
T5 sequence (Q9Y466 155-383 limits assumed): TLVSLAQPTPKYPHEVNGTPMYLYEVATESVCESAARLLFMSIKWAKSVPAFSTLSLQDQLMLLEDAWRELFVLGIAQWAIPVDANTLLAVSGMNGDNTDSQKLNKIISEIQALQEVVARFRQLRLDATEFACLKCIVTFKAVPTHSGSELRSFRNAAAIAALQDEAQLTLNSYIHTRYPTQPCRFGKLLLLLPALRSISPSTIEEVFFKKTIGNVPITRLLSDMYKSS

TLX [4] = settings: reporter gene assay; read-out: IC50 (first value of cell; TLX/Gal4); cited from earlier work

Row | Structure (SMILES) | RXR activation (RXRα [1]) | TR2 off-target activity (TR2) | PNR modulation (PNR (NR2E3)) | EC50 (RXRα [2]) [nM] | EC50 (RXRγ) [nM] | TR4 off-target activity (TR4) | EC50 (RXRβ) [nM] | IC50 (full-length TLX) [nM] | RAR activation (RARα) | toxicity in HEK293T cells used for the reporter gene assays (HEK293T cells) | effect on atrophin binding to TLX LBD (TLX LBD) | Kd (TLX LBD; no precise value reported) [nM] | activity on RARs and RXRs (RARs and RXRs) | TLX modulation (TLX [3]) | IC50 (TLX [4]) [nM]
1 | CC1(C)CCC(C)(C)c2cc(C3(c4ccc(C(=O)O)cc4)OCCO3)ccc21 [compound 11] | strong RXR activation | off-target activities | off-target activities | 29 | 232 | off-target activities | 98 | – | – | – | – | – | – | – | –
2 | CC1(C)CC=C(c2ccccc2)c2cc(/C=C/c3ccc(C(=O)O)cc3)ccc21 [compound 17] | – | – | – | – | – | – | – | 159 | activated RAR | pronounced toxicity | displacement of atrophin | ~1000 | agonism on RARs and RXRs | not observed | 367
